The values that follow come from patent US7276248B2, “Conjugate having a cleavable linkage for use in a liposome” (ALZA Corporation, priority 1999, dated 2007).

By IC50 is commonly meant the point on the concentration scale where inhibition reaches its midpoint.

Data set [1] has as its system M109 cells, a mouse lung carcinoma line. In words: In vitro cytotoxicity / growth rate of M109 cells, methylene blue staining, 72 hour continuous exposure. In kind it is cell-based. Particulars: read-out: IC50 Values for M109 tumor cells after 72 hour culture with continuous exposure to formulation.
Procedure: IC50 values were taken as the drug concentration which caused a 50% inhibition of the control growth rate (IC50), as described in Example 6.
Upon completion of the assay, the cells were fixed and evaluated using the methylene blue staining assay.
In the assay, 1500 M109 mouse carcinoma cells from exponentially growing cultures in 200 μl aliquots (RPMI-1640 medium+10% fetal bovine serum) were plated onto 96 well flat-bottom microtiter plates. […] For each 10-fold increase in drug concentration, four drug concentration points were tested. Each test was performed in triplicate wells and in two parallel plates. The cells were treated continuously for 72 hours.
After the 72 hour treatment period, the cultures were fixed by the addition of 50 μl 2.5% glutaraldehyde to each well for 10 minutes. […] The dye was extracted with 200 μl 0.1 N HCl for 60 minutes at 37° C. and the optical density was determined using a microplate spectrophotometer.
The cell number determined by counting cells with a hemocytometer correlated well with the spectrophotometric absorbance. The initial cell plating density was chosen to ensure a linear relationship between cell number and absorbance at the end of the study. In each study, six wells were fixed before drug was added to determine the initial average absorbance. […]
The growth rate was calculated as GR=(ln 2/DT). […]
A short description of data set [2]: In vivo pharmacokinetics in rats after single bolus intravenous injection. Particulars: time points greater than about 5 minutes.
Procedure: The in vivo pharmacokinetics of the liposomes containing cholesterol and the cholesterol-free liposome formulation was determined in rats.
Eight rats were randomized into treatment groups as follows:
A single intravenous injection of the test formulation was administered as a bolus dose. Blood samples were taken from each animal at the following times after injection: 30 seconds, 15 minutes, 30 minutes, 1 hour, 2 hours, 4 hours, 8 hours, 24 hours, 48 hours, 72 hours and 96 hours. […] A 200 mM iodoacetamine solution was prepared by placing 199.3 mg of iodoacetamide in 5.1 mL of 7.5% EDTA. 15 μL of the 200 mM iodoacetamide solution was placed in each 1 μL of blood sample.
The final volume was adjusted to 1 mL with methanol. […] The samples were spun down at 3,000 rpm for 10 minutes at room temperature. 300 μL of supernatant was transferred to HPLC vials containing 300 μL insert for injection.
100 μL of plasma sample was denatured with 900 μL of methanol followed by centrifugation for 10 minutes at 3,000 rpm. […]
Peak area and retention times were determined by the PE-Nelson Turbochrom (Version 4.1) system. […] The linearity of the method was evaluated suing standard responses from six concentration levels. […] The precision and accuracy of the method were evaluated from the back-calculated concentrations of the standards as well as from the quality control samples.

The structures appear in SMILES notation. Like-named read-outs stand apart in the source and are kept apart here.

`CO[C@@]12[C@H](COC(N)=O)C3=C(C(=O)C(C)=C(N)C3=O)N1C[C@@H]1N[C@@H]12` [free MMC, mitomycin C]: the IC50 in data set [1] (Cysteine Concentration 0) amounted to 285 ± 92 nM; in data set [1] (Cysteine Concentration 1000 μM), 300 ± 71 nM. Further, in data set [2], the “dose remaining in the blood” value is listed as “Virtually none”.
